The test system of experiment [1] is CCR2 expressing cells (CD11b+Ly6c+Hi) in peripheral blood. Nature of the experiment: In vivo depletion assay, flow cytometry of peripheral blood (Example 201). Also on record: species or system human CCR2 knock-in mice (C57 background). The settings on record: hCCR2 knock-in mice, IV 0.1 mpk compound + 10 mpk anti-cotinine antibody (SEQ ID NO: 13/14), peripheral blood at 48 hr. An outline of the steps: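 Mice dosed with compound formulated in saline/DMSO/PBS, with anti-cotinine antibody (rabbit variable region, mouse IgG2a Fc) where required, pre-incubated 30 min at room temperature. Terminal peripheral blood RBC-lysed, Fc-blocked, stained for CD45, CD3, CD11b, Ly6C, human CCR2 and 7AAD; percent depletion of CD11b+Ly6c+Hi cells determined by flow cytometry.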

For experiment [2], the target named is anti-cotinine antibody (SEQ ID NO: 11/12, rabbit variable region with human IgG1 Fc DE mutation). The experiment in a line: SPR binding of anti-cotinine antibody to ARM compounds, Biacore T200, 37° C. (Example 202). The note with it: SPR Biacore T200, 37° C., pH 7.4, antibody SEQ ID NO: 11/12 captured on protein A; Kd in molar. Put shortly:
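Antibody captured on a protein A chip; ARM compounds injected at 100 μL/min (200 s association, 2000 s dissociation), 3-fold 5-point series from 200 nM, at 37 °C in HEPES pH 7.4 buffer with 0.005% P20 and 1% DMSO. Double-referenced sensorgrams fit 1:1 for kon, koff, Kd (koff/kon), residence time (1/koff); pKd averaged across runs.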

The target of experiment [3] is human alpha1 nicotinic acetylcholine (nACh) receptor (Homo sapiens, UniProt P02708). The experiment in a line: Nicotinic acetylcholine receptor antagonism assay, IONFlux automated patch clamp (Example 203). The note with it: for IC50: antagonism of ACh-stimulated human alpha1 nAChR current, patch clamp; for Emax at 100 µM: maximum percentage antagonism at maximum concentration tested 100 μM; for Emax at 100 µM / Emax at 10 µM: read-out: Maximum Response; for Emax at 10 µM: maximum percentage antagonism at maximum concentration tested 10 μM. The experiment is classed as cell-based. An outline of the steps: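 Cells expressing human α1 nAChR were incubated with a compound dose response (top 10 μM or 100 μM), then stimulated with ACh (10 mM), and peak current was read by automated patch clamp. % inhibition was taken against ACh-alone control, corrected for vehicle and run-down, and fit non-linearly for IC50; runs were averaged.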

Each structure is given as a SMILES string.

human alpha1 nicotinic acetylcholine (nACh) receptor, sequence (P02708 21-457): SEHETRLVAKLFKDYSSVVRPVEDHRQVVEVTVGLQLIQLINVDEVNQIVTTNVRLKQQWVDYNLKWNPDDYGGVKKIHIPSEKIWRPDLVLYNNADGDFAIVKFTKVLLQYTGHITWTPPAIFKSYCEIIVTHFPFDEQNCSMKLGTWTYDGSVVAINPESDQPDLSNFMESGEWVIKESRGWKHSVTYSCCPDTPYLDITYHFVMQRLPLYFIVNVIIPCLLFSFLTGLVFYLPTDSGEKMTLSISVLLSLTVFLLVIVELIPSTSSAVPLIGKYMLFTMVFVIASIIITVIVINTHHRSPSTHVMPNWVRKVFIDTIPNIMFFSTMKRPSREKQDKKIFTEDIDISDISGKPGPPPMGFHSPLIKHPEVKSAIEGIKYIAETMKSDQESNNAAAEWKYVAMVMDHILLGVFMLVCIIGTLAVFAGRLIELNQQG
human alpha1 nicotinic acetylcholine (nACh) receptor, sequence (P11230 24-501 partner): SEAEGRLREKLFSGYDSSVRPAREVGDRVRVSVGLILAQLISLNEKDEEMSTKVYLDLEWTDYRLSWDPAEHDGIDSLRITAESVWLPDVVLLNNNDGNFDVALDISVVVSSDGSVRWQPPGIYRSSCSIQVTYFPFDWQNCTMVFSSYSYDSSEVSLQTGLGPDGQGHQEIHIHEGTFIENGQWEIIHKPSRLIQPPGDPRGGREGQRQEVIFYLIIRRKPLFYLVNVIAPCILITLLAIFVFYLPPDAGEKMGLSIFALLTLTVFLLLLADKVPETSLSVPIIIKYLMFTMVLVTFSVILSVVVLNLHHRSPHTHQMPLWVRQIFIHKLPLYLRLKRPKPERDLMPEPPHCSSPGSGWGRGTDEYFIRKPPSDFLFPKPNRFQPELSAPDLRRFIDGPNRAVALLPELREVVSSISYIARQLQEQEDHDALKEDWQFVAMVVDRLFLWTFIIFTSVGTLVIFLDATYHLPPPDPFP
human alpha1 nicotinic acetylcholine (nACh) receptor, sequence (Q07001 22-517 partner): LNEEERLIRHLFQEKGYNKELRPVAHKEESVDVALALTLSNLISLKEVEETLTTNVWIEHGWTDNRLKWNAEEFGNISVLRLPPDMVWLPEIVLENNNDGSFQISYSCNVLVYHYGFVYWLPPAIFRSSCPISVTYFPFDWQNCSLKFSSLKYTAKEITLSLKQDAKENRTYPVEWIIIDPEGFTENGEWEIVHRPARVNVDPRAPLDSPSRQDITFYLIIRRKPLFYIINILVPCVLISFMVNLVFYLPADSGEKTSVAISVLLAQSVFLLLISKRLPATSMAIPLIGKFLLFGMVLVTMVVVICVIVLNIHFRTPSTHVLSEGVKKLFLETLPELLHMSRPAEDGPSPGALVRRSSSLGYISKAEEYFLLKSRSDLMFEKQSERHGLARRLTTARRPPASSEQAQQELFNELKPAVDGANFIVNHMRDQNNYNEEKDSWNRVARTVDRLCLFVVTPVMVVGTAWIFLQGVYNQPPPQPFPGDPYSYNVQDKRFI

Consider `CN1C(=O)C[C@H](C(=O)NCCOCCOCCOCCC(=O)N[C@H]2CC[C@@H](C(=O)N[C@@H]3C[C@H](NC(C)(C)C)CC[C@@H]3N3CC[C@H](Nc4ncnc5ccc(C(F)(F)F)cc45)C3=O)CC2)[C@H]1c1cccnc1` [Example 23, (2S,3S)-N-(2-(2-(2-(3-(((1S,4s)-4-(((1R,2S,5R)-5-(tert-Butylamino)-2-((S)-2-oxo-3-((6-(trifluoromethyl)quinazolin-4-yl)amino)pyrrolidin-1-yl)cyclohexyl)carbamoyl)cyclohexyl)amino)-3-oxopropoxy)ethoxy)ethoxy)ethyl)-1-methyl-5-oxo-2-(pyridin-3-yl)pyrrolidine-3-carboxamide], for which the “% Depletion of CCR2 expressing cells” value in experiment [1] turned out to be 90.7%. Besides, in experiment [2], the “pKd of Antibody for ARM Compound of Formula (I)” value (“pKd of Antibody” below) was 9.2166. In addition, in experiment [3], the IC50 is 85.2 µM and the Emax at 100 µM was 50.5%.

With `CC(C)N(C)[C@@H]1CC[C@H](N2CC[C@H](Nc3ncnc4ccc(C(F)(F)F)cc34)C2=O)[C@H](NC(=O)[C@H]2C[C@@H](NC(=O)CCOCCOCCOCCNC(=O)[C@H]3CC(=O)N(C)[C@@H]3c3cccnc3)C2)C1` [Example 24, (2S,3S)-N-(2-(2-(2-(3-(((1S,3s)-3-(((1R,2S,5R)-5-(Isopropyl(methyl)amino)-2-((S)-2-oxo-3-((6-(trifluoromethyl)quinazolin-4-yl)amino)pyrrolidin-1-yl)cyclohexyl)carbamoyl)cyclobutyl)amino)-3-oxopropoxy)ethoxy)ethoxy)ethyl)-1-methyl-5-oxo-2-(pyridin-3-yl)pyrrolidine-3-carboxamide], the “% Depletion of CCR2 expressing cells” value in experiment [1] came to 89.47%. For the same compound, the “pKd of Antibody” value in experiment [2] came to 9.4425. In experiment [3], half-maximal inhibition (IC50) required 85.3 µM and the Emax at 100 µM was found to be 59.5%.

For `CC(C)N(C)[C@@H]1CC[C@H](N2CC[C@H](Nc3ncnc4ccc(C(F)(F)F)cc34)C2=O)[C@H](NC(=O)[C@H]2CC[C@@H](NC(=O)CCOCCOCCOCCNC(=O)[C@H]3CC(=O)N(C)[C@@H]3c3cccnc3)CC2)C1` [Example 28, (2S,3S)-N-(2-(2-(2-(3-(((1S,4s)-4-(((1R,2S,5R)-5-(Isopropyl(methyl)amino)-2-((S)-2-oxo-3-((6-(trifluoromethyl)quinazolin-4-yl)amino)pyrrolidin-1-yl)cyclohexyl)carbamoyl)cyclohexyl)amino)-3-oxopropoxy)ethoxy)ethoxy)ethyl)-1-methyl-5-oxo-2-(pyridin-3-yl)pyrrolidine-3-carboxamide], the “% Depletion of CCR2 expressing cells” value in experiment [1] is 87.1%. Besides, the “pKd of Antibody” value in experiment [2] worked out at 9.273. Further, in experiment [3], the midpoint of inhibition, the IC50, lay at 40.9 µM and the Emax at 100 µM stood at 69.9%.

Turning to `CC(C)N(C)[C@@H]1CC[C@H](N2CC[C@H](Nc3ncnc4ccc(C(F)(F)F)cc34)C2=O)[C@H](NC(=O)[C@H]2CC[C@H](NC(=O)CCOCCOCCOCCNC(=O)[C@H]3CC(=O)N(C)[C@@H]3c3cccnc3)CC2)C1` [Example 30, (2S,3S)-N-(2-(2-(2-(3-(((1R,4r)-4-(((1R,2S,5R)-5-(Isopropyl(methyl)amino)-2-((S)-2-oxo-3-((6-(trifluoromethyl)quinazolin-4-yl)amino)pyrrolidin-1-yl)cyclohexyl)carbamoyl)cyclohexyl)amino)-3-oxopropoxy)ethoxy)ethoxy)ethyl)-1-methyl-5-oxo-2-(pyridin-3-yl)pyrrolidine-3-carboxamide], in experiment [1], the “% Depletion of CCR2 expressing cells” value is 34.88%. Also, the “pKd of Antibody” value in experiment [2] was determined as 9.3155. Also, in experiment [3], the IC50 is not below 10 µM and the Emax at 10 µM came out at 5.4%.

As to `CCN1C(=O)C[C@H](C(=O)NCCOCCOCCOCCC(=O)N[C@H]2CC[C@@H](C(=O)N[C@@H]3C[C@H](N(C)C(C)C)CC[C@@H]3N3CC[C@H](Nc4ncnc5ccc(C(F)(F)F)cc45)C3=O)CC2)[C@H]1c1cccnc1` [Example 34, (2S,3S)-1-ethyl-N-(2-(2-(2-(3-((cis-4-(((1R,2S,5R)-5-(isopropyl(methyl)amino)-2-((S)-2-oxo-3-((6-(trifluoromethyl)quinazolin-4-yl)amino)pyrrolidin-1-yl)cyclohexyl)carbamoyl)cyclohexyl)amino)-3-oxopropoxy)ethoxy)ethoxy)ethyl)-5-oxo-2-(pyridin-3-yl)pyrrolidine-3-carboxamide], the “% Depletion of CCR2 expressing cells” value in experiment [1] is reported as 95%. Further, the “pKd of Antibody” value in experiment [2] was 9.933. In experiment [3], half-maximal inhibition (IC50) required 28.5 µM and the Emax at 100 µM is 79.2%.

`CCN1C(=O)C[C@H](C(=O)NCCOCCOCCOCCC(=O)N[C@H]2CC[C@@H](C(=O)N[C@@H]3C[C@H](NC(C)(C)C)CC[C@@H]3N3CC[C@H](Nc4ncnc5ccc(C(F)(F)F)cc45)C3=O)CC2)[C@H]1c1cccnc1` [Example 35, (2S,3S)-N-(2-(2-(2-(3-(((1S,4s)-4-(((1R,2S,5R)-5-(tert-butylamino)-2-((S)-2-oxo-3-((6-(trifluoromethyl)quinazolin-4-yl)amino)pyrrolidin-1-yl)cyclohexyl)carbamoyl)cyclohexyl)amino)-3-oxopropoxy)ethoxy)ethoxy)ethyl)-1-ethyl-5-oxo-2-(pyridin-3-yl)pyrrolidine-3-carboxamide]: the “% Depletion of CCR2 expressing cells” value in experiment [1] is recorded as 88.81%. Also, the “pKd of Antibody” value in experiment [2] turned out to be 9.785. Also, in experiment [3], 89.2 µM corresponded to half-maximal inhibition (IC50) and the Emax at 100 µM was determined as 52.3%.

Consider `CN1C(=O)C[C@H](C(=O)NCCOCCOCCOCCOCCOCCC(=O)N[C@@H]2C[C@H](NC(C)(C)C)CC[C@@H]2N2CC[C@H](Nc3ncnc4ccc(C(F)(F)F)cc34)C2=O)[C@H]1c1cccnc1` [Example 37, (2S,3S)-N-(18-(((1R,2S,5R)-5-(tert-Butylamino)-2-((S)-2-oxo-3-((6-(trifluoromethyl)quinazolin-4-yl)amino)pyrrolidin-1-yl)cyclohexyl)amino)-18-oxo-3,6,9,12,15-pentaoxaoctadecyl)-1-methyl-5-oxo-2-(pyridin-3-yl)pyrrolidine-3-carboxamide], for which the “% Depletion of CCR2 expressing cells” value in experiment [1] amounted to 75%. The “pKd of Antibody” value in experiment [2] stood at 9.7475. Further, in experiment [3], the IC50 is not below 10 µM and the Emax at 10 µM stood at 7.3%.

Consider `CN1C(=O)C[C@H](C(=O)NCCOCCOCCOCCOCCOCCOCCC(=O)N[C@@H]2C[C@H](NC(C)(C)C)CC[C@@H]2N2CC[C@H](Nc3ncnc4ccc(C(F)(F)F)cc34)C2=O)[C@H]1c1cccnc1` [Example 38, (2S,3S)-N-(21-(((1R,2S,5R)-5-(tert-Butylamino)-2-((S)-2-oxo-3-((6-(trifluoromethyl)quinazolin-4-yl)amino)pyrrolidin-1-yl)cyclohexyl)amino)-21-oxo-3,6,9,12,15,18-hexaoxahenicosyl)-1-methyl-5-oxo-2-(pyridin-3-yl)pyrrolidine-3-carboxamide], for which, in experiment [1], the “% Depletion of CCR2 expressing cells” value is recorded as 84.55%. In addition, in experiment [2], the “pKd of Antibody” value is listed as 9.611. Moreover, in experiment [3], the IC50 was not below 10 µM and the Emax at 10 µM was -2.2%.

Take `CC(C)N(C)[C@@H]1CC[C@H](N2CC[C@H](Nc3ncnc4ccc(C(F)(F)F)cc34)C2=O)[C@H](NC(=O)C2CCC(NC(=O)CCOCCNC(=O)CCOCCNC(=O)[C@H]3CC(=O)N(C)[C@@H]3c3cccnc3)CC2)C1` (stereo partly drawn) [Example 48, (2S,3S)-N-(2-(3-((2-(3-(((1R,4r)-4-(((1R,2S,5R)-5-(Isopropyl(methyl)amino)-2-((S)-2-oxo-3-((6-(trifluoromethyl)quinazolin-4-yl)amino)pyrrolidin-1-yl)cyclohexyl)carbamoyl)cyclohexyl)amino)-3-oxopropoxy)ethyl)amino)-3-oxopropoxy)ethyl)-1-methyl-5-oxo-2-(pyridin-3-yl)pyrrolidine-3-carboxamide]: the “% Depletion of CCR2 expressing cells” value in experiment [1] is listed as 89%. For the same compound, the “pKd of Antibody” value in experiment [2] is recorded as 8.975. For the same compound, in experiment [3], 31.8 µM corresponded to half-maximal inhibition (IC50) and the Emax at 100 µM amounted to 77%.

Consider `CC(C)N(C)[C@@H]1CC[C@H](N2CC[C@H](Nc3ncnc4ccc(C(F)(F)F)cc34)C2=O)[C@H](NC(=O)[C@H]2C[C@@H](NC(=O)CCOCCOCCNC(=O)CCNC(=O)[C@H]3CC(=O)N(C)[C@@H]3c3cccnc3)C2)C1` [Example 49, (2S,3S)-N-(3-((2-(2-(3-(((1S,3s)-3-(((1R,2S,5R)-5-(Isopropyl(methyl)amino)-2-((S)-2-oxo-3-((6-(trifluoromethyl)quinazolin-4-yl)amino)pyrrolidin-1-yl)cyclohexyl)carbamoyl)cyclobutyl)amino)-3-oxopropoxy)ethoxy)ethyl)amino)-3-oxopropyl)-1-methyl-5-oxo-2-(pyridin-3-yl)pyrrolidine-3-carboxamide], for which the “% Depletion of CCR2 expressing cells” value in experiment [1] is reported as 85.84%. Further, in experiment [2], the “pKd of Antibody” value is on record as 9.191. Moreover, in experiment [3], it took 80.3 µM to reach half-maximal inhibition (IC50) and the Emax at 100 µM came out at 56.7%.

Source of the values: US12521393B2, “Cytotoxicity targeting chimeras for CCR2-expressing cells” (GLAXOSMITHKLINE INTELLECTUAL PROPERTY DEVELOPMENT LIMITED, priority 2021, dated 2026).
